One assay addresses CDK9/CyclinT (Homo sapiens, UniProt P50750). The assay can be described thus: Kinase inhibition assay (ADP-Glo).
The next assay concerns the target T1, DYRK1A (Rattus norvegicus, UniProt Q63470).
T1 construct: amino acids 1 to 499 including the kinase domain; made in house; host or cells: bacteria
Briefly: Kinase inhibition assay (ADP-Glo). In kind it is biochemical. Conditions: 10 µM ATP. As for the experimental part:
RnDYRK1A (Rattus norvegicus, amino acids 1 to 499 including the kinase domain, recombinant, expressed in bacteria, DNA vector kindly provided by Dr. W. Becker, Aachen, Germany) was assayed in buffer A with 0.033 μg/µL of the following peptide: KKISGRLSPIMTEQ as substrate.

Another assay has as its target T2, PIM1 (Homo sapiens, UniProt P11309).
T2 construct: made in house; host or cells: bacteria
The assay can be described thus: Kinase inhibition assay (ADP-Glo). In kind it is biochemical. Conditions: 10 µM ATP. As for the experimental part: HsPIM1 (human proto-oncogene, recombinant, expressed in bacteria) was assayed in buffer B with 0.8 µg/µL of histone H1 (Sigma #H5505) as substrate.

For a further assay, the target named is T3, HASPIN (Homo sapiens, UniProt Q8TF76).
T3 construct: kinase domain, amino acids 470 to 798; made in house; host or cells: bacteria
T3 sequence (Q8TF76 470-798): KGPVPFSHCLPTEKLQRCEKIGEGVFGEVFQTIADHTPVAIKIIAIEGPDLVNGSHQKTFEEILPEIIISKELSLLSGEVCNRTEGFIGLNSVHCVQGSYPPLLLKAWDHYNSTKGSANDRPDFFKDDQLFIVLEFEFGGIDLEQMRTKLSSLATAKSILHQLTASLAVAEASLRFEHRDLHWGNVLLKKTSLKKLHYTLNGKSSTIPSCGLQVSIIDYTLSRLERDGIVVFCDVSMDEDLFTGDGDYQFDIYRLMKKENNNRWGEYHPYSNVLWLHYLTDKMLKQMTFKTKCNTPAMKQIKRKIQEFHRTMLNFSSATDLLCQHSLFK
The assay can be described thus: Kinase inhibition assay (ADP-Glo). The class given is biochemical. Conditions: 10 µM ATP. As for the experimental part:
HsHASPIN (human, kinase domain, amino acids 470 to 798, recombinant, expressed in bacteria) was assayed in buffer A with 0.007 µg/µL of Histone H3 (1-21) peptide ([…]) as substrate;

In a further assay the target is CDK2/CyclinA (Homo sapiens, UniProt P24941). Briefly: Kinase inhibition assay (ADP-Glo). The class given is biochemical. As to conditions: 10 µM ATP. As for the experimental part:
HsCDK2/CyclinA (human, cyclin-dependent kinase-2, kindly provided by Dr. A. Echalier-Glazer, Leicester, UK) was assayed in buffer A with 0.8 µg/µL of histone H1 as substrate.

A further assay deals with CK1δ/ε. The assay can be described thus: Kinase inhibition assay (ADP-Glo). As to conditions: 10 µM ATP. The class given is biochemical, Sus scrofa domesticus. As for the experimental part: SscCK1δ/ε (Sus scrofa domesticus, casein kinase 1δ/ε, affinity purified from porcine brain) was assayed in buffer A, with 0.022 μg/μL of the following peptide: RRKHAAIGSpAYSITA (“Sp” stands for phosphorylated serine) as CK1-specific substrate.

The target of another assay is T4, CDK5/p25 (Homo sapiens, UniProt Q00535).
T4 construct: made in house; host or cells: bacteria
T4 sequence (Q00535 whole entry): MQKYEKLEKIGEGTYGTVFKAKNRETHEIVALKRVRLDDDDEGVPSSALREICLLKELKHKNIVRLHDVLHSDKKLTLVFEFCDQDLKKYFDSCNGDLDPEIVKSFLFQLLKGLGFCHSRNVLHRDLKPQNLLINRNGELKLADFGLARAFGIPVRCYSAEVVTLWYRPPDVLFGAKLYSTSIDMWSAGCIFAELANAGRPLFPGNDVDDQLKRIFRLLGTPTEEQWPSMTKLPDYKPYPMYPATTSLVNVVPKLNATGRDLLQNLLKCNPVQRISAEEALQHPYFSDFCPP
T4 sequence (Q15078 99-307 partner limits assumed): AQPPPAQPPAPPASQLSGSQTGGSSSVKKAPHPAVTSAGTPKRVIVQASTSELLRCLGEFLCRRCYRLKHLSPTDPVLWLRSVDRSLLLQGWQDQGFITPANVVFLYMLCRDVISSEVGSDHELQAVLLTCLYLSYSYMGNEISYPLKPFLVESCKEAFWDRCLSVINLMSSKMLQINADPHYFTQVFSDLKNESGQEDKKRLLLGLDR
The assay can be described thus: Kinase inhibition assay (ADP-Glo). In kind it is biochemical. Conditions: 10 µM ATP. As for the experimental part:
HsCDK5/p25 (human, recombinant, expressed in bacteria) was assayed in buffer A, with 0.8 µg/µL of histone H1 as substrate.

The next assay deals with GSK3 α/β. Briefly: Kinase inhibition assay (ADP-Glo). In kind it is biochemical, Sus scrofa domesticus. Conditions: 10 µM ATP. As for the experimental part: SscGSK-3α/β (Sus scrofa domesticus, glycogen synthase kinase-3, affinity purified from porcine brain) was assayed in buffer A with 0.010 µg/µL of GS-1 peptide, a GSK-3-selective substrate ([…]pEDEEE, “Sp” stands for phosphorylated serine).

The test system of another assay is NCI-H292. Briefly: MTT cytotoxicity, 72 h. As to conditions: Homo sapiens, NCI-H292, 72 h of incubation. The class given is cell-based, human. As for the experimental part: (§1) The cytotoxicity assessment was performed against three human cancer cell lines in suspension (K562, HL-60 and MOLT-4) and four adhered (HEp-2, NCI-H292, HT-29 and MCF-7).
(§2) The cells were obtained from the Cell Bank of Rio de Janeiro and maintained in the Laboratory of Cell Culture of the Department of Antibiotics of the Federal University of Pernambuco. The lines K562 (myeloblastic leukaemia), HL-60 (promyelocytic leukemia) and MOLT-4 (lymphoblastic leukemia) were cultured in RPMI 1640 medium and the lines HEp-2 (larynx carcinoma), NCI-H292 (lung carcinoma), HT-29 (colon adenocarcinoma) and MCF-7 (breast adenocarcinoma) were cultured in DMEM medium, supplemented with 10% fetal bovine serum, 2 mM glutamine, 100 U/mL penicillin and 100 μg/mL streptomycin (Gibco™ Life Technologies), at 37 °C and 5% CO2.
(§3) The evaluation of the cytotoxicity of the compounds was performed by the method of 3-(4,5-dimethyl-2-thiazolyl)-2,5-diphenyl-2H-tetrazolium bromide (MTT) (Sigma Aldrich Co., St. Louis, MO, USA). To perform the assay the cells were seeded in 96-well plates at the following concentrations: HL-60 and K562 (0.3 × 10^6 cells/mL); MOLT-4 and PBMC (10^6 cells/mL); NCI-H292, HT-29, HEp-2 e MCF-7 (10^5 cells/mL). Briefly, the compounds previously dissolved in DMSO (dimethylsulfoxide, Vetec, São Paulo, Brazil), were diluted in medium and added to each well at the desired concentrations. For the calculation of the concentration that inhibits 50% of cell growth (IC50) the compounds were serially diluted to obtain the final concentrations between 0.19–25 μg/mL. Doxorubicin was used as the standard in the concentration range between (0.078–10 μg/mL). After 72 h of contact of the cells with the compounds, it was added to each well 25 μL of MTT solution (5 mg/mL). Plates were left for another 3 h in incubator at 37 °C and at the end of that period the supernatant was aspirated. To perform the reading, 100 μL of DMSO was added in each well for the dissolution of the formazan crystals. The amount of formazan was measured by reading the plate at 560 nm absorbance. The IC50 was calculated from the nonlinear regression in the Prisma 7.0 software (GraphPad, San Diego, CA, USA). Each sample was tested in triplicate in three independent experiments.

The subject of another assay is HT-29. The assay can be described thus: MTT cytotoxicity, 72 h. The class given is cell-based, human. As to conditions: Homo sapiens, HT-29, 72 h of incubation. As for the experimental part:
as §1, §2, §3

In another assay the test system is MCF-7. The assay can be described thus: MTT cytotoxicity, 72 h. In kind it is cell-based, human. Conditions: Homo sapiens, MCF7, 72 h of incubation. As for the experimental part: as §1, §2, §3
The test system of the next assay is HEp-2. The assay can be described thus: MTT cytotoxicity, 72 h. The class given is cell-based, human. Conditions: Homo sapiens, HEp-2, 72 h of incubation. As for the experimental part: as §1, §2, §3
For another assay, the system named is HL-60. The assay can be described thus: MTT cytotoxicity, 72 h. As to conditions: for selectivity index (SI = IC50 PBMC/ IC50 cancer cells): HL-60 versus PBMC; for IC50: Homo sapiens, HL-60, MTT, 72 h of incubation. The class given is cell-based, human. As for the experimental part: as §1, §2, §3
A further assay deals with MOLT-4. The assay can be described thus: MTT cytotoxicity, 72 h. In kind it is cell-based, human. As to conditions: Homo sapiens, MOLT-4, 72 h of incubation. As for the experimental part:
as §1, §2, §3

Another assay concerns K562. The assay can be described thus: MTT cytotoxicity, 72 h. In kind it is cell-based, human. Conditions: Homo sapiens, K562, 72 h of incubation. As for the experimental part: as §1, §2, §3

The structures appear in SMILES notation. A value given as a limit tells only on which side of the number the result lay.

T2 sequence (P11309 whole entry): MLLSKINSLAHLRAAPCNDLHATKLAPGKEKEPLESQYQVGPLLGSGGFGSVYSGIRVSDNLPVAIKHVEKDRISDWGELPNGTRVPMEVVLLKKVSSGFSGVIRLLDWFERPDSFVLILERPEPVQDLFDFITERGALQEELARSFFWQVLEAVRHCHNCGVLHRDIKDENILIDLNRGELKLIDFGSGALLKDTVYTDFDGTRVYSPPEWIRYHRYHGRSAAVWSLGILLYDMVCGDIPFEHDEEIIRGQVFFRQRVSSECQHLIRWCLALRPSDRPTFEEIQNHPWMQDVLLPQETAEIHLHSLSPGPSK
Chain of CDK9/CyclinT (P50750 whole entry): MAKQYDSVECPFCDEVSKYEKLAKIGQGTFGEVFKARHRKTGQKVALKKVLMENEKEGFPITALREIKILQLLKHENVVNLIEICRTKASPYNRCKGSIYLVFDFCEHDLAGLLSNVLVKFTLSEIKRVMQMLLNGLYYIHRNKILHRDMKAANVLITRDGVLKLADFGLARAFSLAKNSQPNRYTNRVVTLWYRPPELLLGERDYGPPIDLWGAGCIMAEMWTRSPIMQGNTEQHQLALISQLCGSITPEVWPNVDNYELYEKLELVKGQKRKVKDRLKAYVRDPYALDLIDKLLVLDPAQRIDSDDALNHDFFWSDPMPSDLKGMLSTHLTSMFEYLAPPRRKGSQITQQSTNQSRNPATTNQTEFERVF
Chain of CDK9/CyclinT (O60563 whole entry partner): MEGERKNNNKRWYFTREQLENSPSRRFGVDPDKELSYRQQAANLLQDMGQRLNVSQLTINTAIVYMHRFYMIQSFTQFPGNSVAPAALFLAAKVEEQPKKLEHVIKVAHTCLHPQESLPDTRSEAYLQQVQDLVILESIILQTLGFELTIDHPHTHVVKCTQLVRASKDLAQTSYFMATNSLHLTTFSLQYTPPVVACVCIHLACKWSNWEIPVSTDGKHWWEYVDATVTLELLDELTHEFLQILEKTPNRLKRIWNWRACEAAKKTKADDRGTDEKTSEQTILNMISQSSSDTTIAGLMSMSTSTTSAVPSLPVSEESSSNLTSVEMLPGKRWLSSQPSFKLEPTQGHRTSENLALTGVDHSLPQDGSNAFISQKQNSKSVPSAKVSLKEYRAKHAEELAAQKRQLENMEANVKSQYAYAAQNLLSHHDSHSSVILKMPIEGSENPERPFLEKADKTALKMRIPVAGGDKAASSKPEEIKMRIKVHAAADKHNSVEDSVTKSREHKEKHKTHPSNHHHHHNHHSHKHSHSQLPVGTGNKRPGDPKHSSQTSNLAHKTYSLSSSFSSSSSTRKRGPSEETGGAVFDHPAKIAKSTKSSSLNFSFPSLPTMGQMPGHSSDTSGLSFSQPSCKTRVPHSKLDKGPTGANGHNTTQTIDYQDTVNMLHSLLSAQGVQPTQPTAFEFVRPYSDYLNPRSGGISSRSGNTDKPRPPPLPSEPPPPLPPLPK
Method for CDK9/CyclinT: The protein kinases studied were: CDK2/CyclinA, CDK5/p25, CDK9/CyclinT (cyclin-dependent kinases), HASPIN (haploid germ cell-specific nuclear protein kinase), PIM1 (PIM family kinase 1), CLK1 (cdc2-like kinase 1), DYRK1A (dual-specificity tyrosine phosphorylation regulated kinase), CK1δ/ε (casein kinase 1 isoforms), GSK3α/β (glycogen synthase kinase 3) and AURKB (aurora kinase B). Initially, all compounds were first tested at 10 μM. […] Compounds displaying more than 50% inhibition at 10 μM were next tested over a wide range of concentrations (usually 0.01–10 μM), and IC50 values were determined from the dose-response curves (Sigma-Plot).
Kinase activities were assayed in appropriate kinase buffer, with either protein or peptide as substrate in the presence of 10 µM ATP in a final volume of 6 µL using the ADP-Glo^TM assay kit (Promega, Madison, WI, USA, as described in Zegzouti et al. [66]). Controls were performed with appropriate dilutions of dimethylsulfoxide (solvent of the tested compounds).
The buffers used for kinase assays are the following: (A) 10 mM MgCl2, 1 mM EGTA, 1 mM DTT, 25 mM Tris-HCl pH 7.5, 50 µg/mL heparin; (B) 25 mM MOPS, pH 7.2, 12.5 mM -glycerolphosphate, 25 mM MgCl2, 5 mM EGTA, 2 mM EDTA, 0.25 mM DTT.

On to `CCCCN(N=Cc1ccc([N+](=O)[O-])o1)C(N)=O` [Compound 4a, 5-Nitro-2-(N^2-n-butyl)furfuraldehyde Semicarbazone], for which the IC50 against CDK9/CyclinT is greater than 10 µM; on DYRK1A, greater than 10 µM; at PIM1, greater than 10 µM; on HASPIN, greater than 10 µM; on CDK2/CyclinA, greater than 10 µM; against CK1δ/ε, 0.76 µM. The IC50 on CDK5/p25 was greater than 10 µM; on GSK3 α/β it was greater than 10 µM; with NCI-H292 it was 37.9 ± 1.5 µM; in the assay with HT-29, 36.3 ± 0.97 µM; with MCF-7, 33.6 ± 0.71 µM; with HEp-2, 34.4 ± 0.88 µM. In addition, the IC50 in the assay on HL-60 was 11.4 ± 0.27 µM; with MOLT-4, 19.5 ± 0.62 µM; in the assay on K562 it was 24.2 ± 1.15 µM. Further, the “selectivity index (SI = IC50 PBMC/ IC50 cancer cells)” value in the assay on HL-60 was 4.5.
For `NC(=O)N/N=C/c1c(O)ccc2ccccc12` [Compound 3c, 2-Hydroxynaphthaldehyde Semicarbazone], the IC50 is 0.86 µM at CDK9/CyclinT; 0.073 µM at DYRK1A; 0.52 µM at PIM1; greater than 10 µM on HASPIN; 0.53 µM on CDK2/CyclinA; greater than 10 µM at CK1δ/ε. The IC50 is 0.35 µM on CDK5/p25; greater than 10 µM against GSK3 α/β; 56.3 ± 3.05 µM with NCI-H292; 40.6 ± 1.02 µM with HT-29; 34 ± 1.06 µM in the assay with MCF-7; 37.1 ± 1.5 µM in the assay with HEp-2. The IC50 with HL-60 is 13.1 ± 0.62 µM; in the assay on MOLT-4, 41 ± 0.7 µM; with K562, 52.3 ± 1.15 µM. Besides, the “selectivity index (SI = IC50 PBMC/ IC50 cancer cells)” value with HL-60 was determined as 6.2.
For `Cc1ccc(C=NNC(N)=O)cc1` [Compound 3g, 4-Methylbenzaldehyde Semicarbazone], the IC50 against CDK9/CyclinT, at DYRK1A, on PIM1, against HASPIN, on CDK2/CyclinA and at CK1δ/ε was greater than 10 µM throughout. Also, the IC50 was greater than 10 µM on CDK5/p25; greater than 10 µM against GSK3 α/β; greater than 100 µM with NCI-H292; greater than 100 µM in the assay on HT-29; greater than 100 µM in the assay with MCF-7; 24.3 ± 0.97 µM in the assay with HEp-2. Moreover, the IC50 in the assay with HL-60 came to 48.5 ± 1.63 µM; with MOLT-4, 56.4 ± 0.97 µM; in the assay with K562, 33.3 ± 0.71 µM.
